For one compound, GI50 and TGI results are on record in PubChem BioAssay (NCI).

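Values below derive from 48-hour exposures of cells grown in 96-well plates, with endpoints linearly interpolated between the two concentrations bracketing the appropriate inhibition level. At the GI50, growth is halved. At the TGI there is no net growth.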

For this assay, the system named is P388/ADR leukemia. In words: NCI tumour cell line growth inhibition, 48 h.

With `Cc1cc([NH-])c([NH-])cc1C.[Cl][Pt+2][Cl]`, the GI50 is 2.36 µM and the TGI was determined as 6.97 µM.
